In publication PMC11087482, “Discovering allatostatin type-C receptor specific agonists” (Nature Communications, 2024):
Converted amounts (≈) assume the structure as drawn. Like-named read-outs stand apart in the source and are kept apart here. Marks after values point to notes of the source that are not given here. Positions of bridges follow the written chain, without caps; N, C: chain ends. Non-standard residues stand in square brackets, D forms with d. Residues, ends and D or L forms follow the SMILES beside them. pGlu = O=C1CC[C@@H](C(=O)O)N1

What was measured:
[1] = Side effect tests on potato beetle larvae, topical application; format: in vivo; details: Leptinotarsa decemlineata, in vivo
Experimental: (§1) Pine processionary moth 2nd instar larvae of Thaumetopoea pityocampa for toxicity tests, adult, and 1st instar larvae of predator Calosoma sycophanta, 2nd instar larvae of potato beetle Leptinotarsa decemlineata were used for side effect assays.
(§2) L. decemlineata larvae were collected from a potato field in Kahramankazan district of Ankara province in 2022. The larvae were cultured in the laboratory under 60% (±10) humidity, 27(±2) °C temperature, and 16:8 light: dark photoperiod with potato plant leaves.
(§3) Effective molecules of toxicity tests were applied on adults, 1st instar larvae of predator C. sycophanta, and 2nd instar larvae of potato beetle L. decemlineata to evaluate side effects.
(§4) 5 µL of 1000 ppm dose were applied topically on the dorsal surface of the head-prothorax junction 2nd instar larvae of potato beetle. 30 larvae were used in assays, and larvae were placed on potato leaves inside the water-filled cups for feeding. Negative control groups were as previously described. Dimilin 25 WP (%25 diflubenzuron) was used as a positive control on L. decemlineata. Experiments were carried out with three repeats.
(§5) Insect deaths were evaluated on the 3rd, 7th, and 14th days in toxicity and side effect experiments. The ones that were not feeding or not responding by a movement to stimulation with a soft-tipped brush were accepted as dead. Percentage mortality values generated on the 14th day were corrected using Abbott’s formula[84]. Statistical analyses were executed with IBM SPSS Statistics (v26.0) and R Studio (2022.02.0), and two-way ANOVA and Tukey test were performed to detect the data’s statistical significance. Lethal concentration values of LC50–90 (dose that produces 50-90% mortality in the population) with 95% confidence intervals (CI) and slopes were obtained using PoloPlus software (LeOra Software, USA) for mortality values assessed on the 14th day for T. pityocampa and the 3rd day for L. decemlineata. The LC50–90 values were considered to be similar if their 95% CIs overlapped (P > 0.05)[85]. Analysis between-subject effects on T. pityocampa larva length; one-way ANOVA tests assessing the impacts of molecule treatment on T. pityocampa larvae on larva length; and analysis of between-subjects effects on T. pityocampa head capsule width, alongside one-way ANOVA tests regarding the effects of molecule treatment on T. pityocampa larvae to head capsule width are detailed in the Source Data File (Source Data Supplementary Data Tables 1–4). Source data is available as Source Data File.

[2] = tested on: T. pityocampa AlstR-C; assay: TGF-α shedding assay on HEK293 cells overexpressing the receptor; format: cell-based, Thaumetopoea pityocampa; details: Gαq/i1, read-out: EC50 (AP-TGFα release)
Experimental: HEK293 cells were maintained in DMEM (PAN Biotech) supplemented with 10% FBS (Gibco) and 1% Penicillin-Streptomycin (Gibco) at 37 °C in a 5% CO2 incubator. Cells were seeded in 6-well plates before transfection, and Lipofectamine™ 3000 Transfection Reagent (Thermo Fisher Scientific) was used for transfection in compliance with the manufacturer’s instructions.
HEK293 cells were seeded in DMEM 10% FBS without P/S to 6-well plates 1 day before the transfection. Following overnight incubation at 37 °C, the cells were cotransfected with plasmids of the desired receptor (100 ng)[44],[48] or pcDNA3.1, AP-TGFα (250 ng), and Gαq/i1 (10 ng) using Lipofectamine™ 3000 Transfection Reagent and incubated 24 h at 37 °C 5% CO2 incubator. Plasmids used for the TGF-α shedding assay were kindly gifted from Prof. Asuka Inoue[82],[83]. TGF-α Shedding Assay was used to measure the activity of studied compounds[83]. Cell harvesting was accomplished with TrypLE™ Express Enzyme (Gibco) since it was previously noted that trypsinization results in a higher background signal. After reseeding the cells in a 96-well plate, 10x concentrations of the compounds prepared in HBSS were applied for stimulation. For compounds not readily soluble in water, a concentration of 0.01 % (w/v) bovine serum albumin (BSA) in HBSS was used for dilution. Each treatment was performed with four replicas. Alkaline phosphatase activity was measured before and after 1-h and 2-h incubation at room temperature, and the absorbance of the plates at 405 nm was measured. AP-TGF-α release signals were fitted to a four-parameter sigmoidal dose-response curve, and EC50 values were calculated using GraphPad Prism 9.5.

[3] = tested on: Leptinotarsa decemlineata second-instar larvae; assay: Side effect tests on potato beetle larvae, topical application; format: in vivo; details: 1000 ppm topical, second-instar larvae, days 3, 7, 14
Experimental: as §1, §2, §3, §4, §5

[4] = tested on: T. pityocampa larvae; assay: Toxicity tests, topical application on second instar larvae; format: in vivo; details: for Mean mortality: highest effect
Experimental: as §1
T. pityocampa larvae were collected from red pine trees, Pinus brutia, in Nallıhan district of Ankara, Türkiye, in 2021. Larvae were cultured in 60 (±10) % humidity, 27 (±2) °C, and 16:8 light: dark photoperiod and were fed with red pine needles.
Stock solutions of the molecules were dissolved in DMSO, AST-C peptide was dissolved in PBS supplemented with 0.1% BSA pH 7.4. Dilutions were prepared in PBS supplemented with 0.1% BSA pH 7.4 in 50, 100, 250, 500, 750, and 1000 ppm (mg/L) concentrations and later placed in an ultrasonic bath (Sonorex, Bandelin) for ~10 min at 37 °C until all precipitates had vanished. Toxicity tests were conducted 1 day after larvae collection. 5 µL of doses were applied on the dorsal surface of the head-prothorax junction topically. […] Two negative control groups were prepared as PBS-applied and no application. Following the procedures, larvae were fed with 15 g P. brutia needles. Experiments were carried out on 10 larvae for each dosage, with three repeats.
as §5

[5] = tested on: Calosoma sycophanta first-instar larvae and adults; assay: Side effect tests on predatory insect, topical application; format: in vivo; details: 1000 ppm topical, days 3, 7, 14
Experimental: as §1
C. sycophanta adults and T. pityocampa nests were collected from Korkuteli forests in Antalya 2022. T. pityocampa nests were stored at +4 °C to prevent pupae formation. 20 adult C. sycophanta were placed in clear plastic boxes (30 × 45 × 30 cm) with moist soil at the bottom. Adults were fed with T. pityocampa larvae regularly. After mating, C. sycophanta eggs were collected from the soil with a soft tip brush, and eggs were reserved in moist cotton until eggs cracked. Subsequently, C. sycophanta larvae were placed individually in clear, hard plastic cups (180 cm^3) containing moist soil and covered with glass. One T. pityocampa larva per day was added to each cup for feeding. Predator insects were cultured in 65 (±5) % humidity, 25 (±5) °C, and 16:8 light: dark photoperiod.
as §3
C. sycophanta larvae and adults were placed individually in clear, hard plastic cups (180 cc) containing moist soil. 5 µL of 1000 ppm dose was applied topically on the head-prothorax junction’s dorsal surface. 50 larvae and adults were used in the experiments. One T. pityocampa larva per day was added to each cup for feeding. Two negative controls were PBS-applied and no application groups.
as §5, with “Analysis between-subject effects on T. pityocampa larva length; one-way ANOVA tests assessing the impacts of molecule treatment on T. pityocampa larvae on larva length; and analysis of between-subjects effects on T. pityocampa head capsule width, alongside one-way ANOVA tests regarding the effects of molecule treatment on T. pityocampa larvae to head capsule width are detailed in the Source Data File (Source Data Supplementary Data Tables 1–4). Source data is available as Source Data File.” left out

[6] = tested on: T. pityocampa larvae; assay: Larval body allometry (body length, head capsule width) on day 14 of treatment; format: in vivo, Thaumetopoea pityocampa; details: for Larva Length, Mean Difference (I-J) versus Control / head capsule width, Mean Difference (I-J) versus Control: day 14, Tukey HSD, n = 20; for head capsule width / total body length: 14th day of treatment
Experimental: In addition, the ability of the identified hit compounds to alter larval body allometry was tested through measuring total body lengths and head capsule widths on the 14th day of treatment (Fig. 7).
as §5

[7] = tested on: AlstR-C; assay: GloSensor cAMP assay after forskolin stimulation; format: cell-based, Thaumetopoea pityocampa; details: after 10 µM forskolin
Experimental: The ability of the hit compounds to activate the Gαi pathway was evaluated using a commercial cAMP assay (GloSensor, Promega). Prior to ligand treatment, cells were stimulated with 10 µM forskolin to elevate intracellular cAMP levels, and the ability of each ligand and control to downregulate cAMP was evaluated after 1 h. […] As an additional control, the ability of the hit compounds to activate a different receptor (5-HTR4) was also assessed using an AP-TGFα assay (Fig. 4k).
HEK293 cells were seeded 30,000 cells per well in DMEM 10% FBS without P/S to Greiner 655094 96-well plates 1 day before the transfection. Following overnight incubation at 37 °C, the cells were cotransfected with plasmids of the desired receptor along with GloSensor^TM cAMP plasmid using Lipofectamine™ 3000 Transfection Reagent and incubated 24 h at 37 °C 5% CO2 incubator. […] The baseline development was measured on a Thermo Scientific Fluoroskan Ascent FL Microplate Fluorometer and Luminometer plate reader following the cell stimulation with 10 μL 10 μM forskolin, approximately 1 h. […] Luminescence was measured at 1 read per well every 2 min, scaling factor was 10. Data were analyzed by calculating the area under the curve (AUC) over the ~2-h measurement period. Statistical significance was measured with ANOVA, and multiple comparisons were done with Dunnett’s Test. […]

[8] = parameters: method as in PMID 19540423, PMID 20936640; details: cited from earlier work
[9] = Thaumetopoea pityocampa, topical, 336 h
[10] = Thaumetopoea pityocampa, topical, 336 h, read-out: LC50 (95% CI)
[11] = day 14 mortality, Probit analysis

Row | Structure (SMILES) | EC50 [2] | LC50 at 3 days ([1]; L. decemlineata larvae, positive control, 3rd day mortality) | LC50 at 3 days ([1]; potato beetle larvae, after 3 days of application) | Insect deaths (mortality rate) [3] | LC50 [4, 9] | LC50 [4, 10] | LC90 (95% CI) [4, 11] | Insect deaths (mortality rate) [5] | Larva Length, Mean Difference (I-J) versus Control [6] | head capsule width, Mean Difference (I-J) versus Control [6] | mortality rate ([4]; 14 days post-administration, highest dose) | mortality ([4]; end of day 7, 1000 ppm) | head capsule width [6] | total body length [6] | Mean mortality ([4]; 14 days post-administration) | mortality ([4]; after 3 days, >500 ppm) | ability to downregulate cAMP (RLU) [7] | LC50 ([4]; day 14 after the application, Probit analysis) | LC50 (95% CI) [4, 11] | shelf life and degradation in the environment [8]
1 | O=C(NC(=O)c1c(F)cccc1F)Nc1ccc(Cl)cc1 [Diflubenzuron, diflubenzuron, reference compound] | – | 38.5 mg/L (≈ 124 µM) | 38 mg/L (≈ 122 µM) | – | – | – | – | – | – | – | – | – | – | – | – | – | – | – | – | –
2 | O=C1c2n[nH]c(-c3ccccc3O)c2C(c2cccc(Oc3ccccc3)c2)N1CC1CCCO1 (stereo not drawn) [D074-0013] | 1.42 µM | – | – | below 10% | – | > 1000 mg/L | – | below 10% | -4,445* mm | – | below 50% | 27% | small compared to other molecules | small compared to other molecules | – | – | – | – | – | –
3 | COc1ccc([C@H](CC(=O)NCc2ccncc2)c2cn(Cc3ccc(C)cc3)c3ccccc23)cc1OCc1ccccc1 [V029-3547] | 8.17 µM | – | – | below 10% | 406 mg/L (≈ 682 µM) | 406 mg/L (≈ 682 µM) | 900.815 (696.503–1634.450) mg/L | below 10% | -8,705* mm | -1,120* mm | – | – | – | – | 83.7% | > 63.3% | greatest ability to modulate cAMP | – | – | –
4 | CC[C@H](C)[C@@H]1NC(=O)[C@@H]2CCCN2C(=O)[C@H](CC(N)=O)NC(=O)[C@H](Cc2ccccc2)NC(=O)[C@H](Cc2ccc(O)cc2)NC(=O)[C@@H](NC(=O)[C@H](CCC(N)=O)NC(=O)[C@H](CCCNC(=N)N)NC(=O)[C@H](Cc2ccccc2)NC(=O)[C@H](CCCNC(=N)N)NC(=O)[C@@H](NC(=O)[C@@H]2CCC(=O)N2)C(C)C)CSSC[C@@H](C(=O)N[C@@H](Cc2ccccc2)C(=O)O)NC(=O)[C@H](CO)NC1=O [AST-C, reference compound] ([pGlu]VRFRQCYFNPISCF-OH; disulfide 7-14; C-terminus assumed) | 0.000623 µM | – | – | – | – | – | 782.851 (512.785–1616.980) mg/L | – | -9,070* mm | -1,105* mm | – | – | Statistically significant decreases | Statistically significant decreases | 100% | – | most significant impact | 152 ppm | 152.414 (101.993–209.528) mg/L | comparatively short shelf life and undergoes rapid degradation in the environment

Continued, in another order:

Row | EC50 [2] | Structure (SMILES) | LC50 at 3 days ([1]; L. decemlineata larvae, positive control, 3rd day mortality) | LC50 at 3 days ([1]; potato beetle larvae, after 3 days of application) | Insect deaths (mortality rate) [3] | LC50 [4, 9] | LC50 [4, 10] | LC90 (95% CI) [4, 11] | Insect deaths (mortality rate) [5] | Larva Length, Mean Difference (I-J) versus Control [6] | head capsule width, Mean Difference (I-J) versus Control [6] | mortality rate ([4]; 14 days post-administration, highest dose) | mortality ([4]; end of day 7, 1000 ppm) | head capsule width [6] | total body length [6] | Mean mortality ([4]; 14 days post-administration) | mortality ([4]; after 3 days, >500 ppm) | ability to downregulate cAMP (RLU) [7] | LC50 ([4]; day 14 after the application, Probit analysis) | LC50 (95% CI) [4, 11] | shelf life and degradation in the environment [8]
5 | 5.66 µM | O=C(C[C@@H]1NC(=O)c2ccccc2NC1=O)NCCn1c(=O)c(O)nc2ccccc21 [J100-0311] | – | – | below 10% | 411 mg/L (≈ 975 µM) | 412 mg/L (≈ 977 µM) | 6740.368 (2743.061–6.275 × 10^4) mg/L | below 10% | -8,015* mm | -1,075* mm | – | – | – | – | – | – | – | – | – | –
6 | 4.7 µM | O=C1c2n[nH]c(-c3ccccc3O)c2C(c2cccc(OCc3ccccc3)c2)N1CC1CCCO1 (stereo not drawn) [D074-0034] | – | – | below 10% | 443 mg/L (≈ 920 µM) | 444 mg/L (≈ 921 µM) | – | below 10% | -7,845* mm | -1,000* mm | – | – | – | – | – | – | – | – | – | –
